We go through 4 compounds from publication PMC6882824, “Engineering of chimeric peptides as antagonists for the G protein-coupled receptor, RXFP4” (Scientific Reports, 2019).

Where two headings read alike, the source gives them in different places. Bridge positions count the residues as written; N and C are the ends. Peptide text beside a SMILES is read from it. I, II: the chains in the order shown.

What is called Emax is the greatest response seen or fitted, relative to the assay's reference.

Assay [1] concerns the target T1, RXFP4 (Homo sapiens, UniProt Q8TDU9). As to the kind of experiment: cAMP agonist assay (inhibition of forskolin-induced cAMP, pCRE β-galactosidase reporter) in CHO-K1-RXFP4 cells. It counts as cell-based. Details: expressed in transfected cells; host or cells: CHO-K1 (ATCC), stably transfected. As to conditions: for RXFP4 Activity pEC50: CHO-K1-RXFP4 cells, inhibition of 1 µM forskolin-induced cAMP, 6 hours, mean ± SEM, n in cell. The procedure: (§1) The peptides were tested for their ability to inhibit forskolin induced cAMP activity in CHO-K1-RXFP3 or CHO-K1-RXFP4 cells transfected with a pCRE (cAMP Response Element) β-galactosidase reporter plasmid as previously described[9],[34]. For agonist assays cells were stimulated with forskolin (5 µM for RXFP3, 1 µM for RXFP4) plus or minus increasing concentrations of each peptide for 6 hours. For antagonist assays cells were stimulated with forskolin as in agonist assays plus increasing concentrations of each peptide for 10 minutes followed by stimulation with agonist at an ~EC80 concentration for a further 6 hours (10 nM Analogue 2 for RXFP3 and 16.6 nM Analogue 13 for RXFP4). Each peptide was tested in triplicate and each experiment was performed independently at least three times. Agonist data was expressed as the % Forskolin activity whereby 100% was defined as Forskolin alone and 0% as maximum agonist stimulation (1 µM Analogue 2 for RXFP3 and 1 µM Analogue 13 for RXFP4). […] Data were analysed and plotted using GraphPad PRISM 8 and are expressed as the mean ± SEM of the pooled data. Statistical analysis was conducted using one-way ANOVA with Uncorrected Fisher’s LSD post-hoc analysis in GraphPad Prism version 8.

In assay [2] the target is T2, RXFP3 (Homo sapiens, UniProt Q9NSD7).
T2 construct: expressed in transfected cells; host or cells: CHO-K1 (ATCC), stably transfected
T2 sequence (Q9NSD7 1-469): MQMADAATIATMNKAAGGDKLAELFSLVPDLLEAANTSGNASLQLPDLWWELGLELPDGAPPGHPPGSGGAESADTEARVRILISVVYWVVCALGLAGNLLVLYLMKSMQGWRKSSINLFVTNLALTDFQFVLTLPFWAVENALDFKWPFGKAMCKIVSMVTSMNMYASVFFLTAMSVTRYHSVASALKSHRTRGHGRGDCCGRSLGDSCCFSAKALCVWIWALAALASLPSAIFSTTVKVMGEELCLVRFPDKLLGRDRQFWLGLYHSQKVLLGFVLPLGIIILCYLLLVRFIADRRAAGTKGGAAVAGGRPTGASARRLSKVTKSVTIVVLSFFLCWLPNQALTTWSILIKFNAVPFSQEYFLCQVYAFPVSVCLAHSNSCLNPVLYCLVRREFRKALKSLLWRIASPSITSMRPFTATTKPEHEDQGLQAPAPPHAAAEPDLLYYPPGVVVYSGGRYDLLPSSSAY
Kind of assay: Competition binding in CHO-K1-RXFP3 cells (Eu-H3B1-22R). The conditions noted are these: CHO-K1 cells stably transfected with RXFP3, competition with 5 nM Eu-H3B1-22R. How it is done:
(§2) Chinese hamster ovary CHO-K1 cells (sourced from American Type Culture Collection (ATCC), Maryland, USA) stably transfected with RXFP3[33] or RXFP4[9] were plated out onto precoated poly-L-lysine 96-well view plates at a density of 50 000 cells per well. Medium was aspirated off and the cells were washed with phosphate-buffered saline (PBS) before competition binding assays were performed with 5 nM Eu-H3B1–22R[34] (RXFP3 ligand) or 5 nM Eu-DTPA-mINSL5[9] (RXFP4 ligand) as previously described. Competition binding curves were performed in triplicate and each experiment was performed independently at least three times. Fluorescent measurements were carried out on a BMG POLARstar plate reader (BMG Labtech, Melbourne, Australia. Pooled data are presented as mean ± S.E of specific binding and are fitted using one-site binding curve in GraphPad Prism version 8 (GraphPad Inc., San Diego, USA). Statistical analyses were conducted using one-way analysis of variance with uncorrected Fisher’s least significant difference (LSD) post-hoc analysis in GraphPad Prism version 8.

Assay [3] concerns the target T1, RXFP4. As to the kind of experiment: Competition binding in CHO-K1-RXFP4 cells (Eu-DTPA-mINSL5). Further details: expressed in transfected cells; host or cells: CHO-K1 (ATCC), stably transfected. The conditions noted are these: CHO-K1 cells stably transfected with RXFP4, competition with 5 nM Eu-DTPA-mINSL5. The procedure: as §2
Assay [4] concerns the target T2, RXFP3. Kind of assay: cAMP agonist assay (inhibition of forskolin-induced cAMP, pCRE β-galactosidase reporter) in CHO-K1-RXFP3 cells. As to conditions: SEM; read-out: RXFP3 Activity pEC50 (converted). It counts as cell-based. How it is done: as §1
The target in assay [5] is T1, RXFP4. As to the kind of experiment: cAMP antagonist assay against 16.6 nM analogue 13 in CHO-K1-RXFP4 cells. It counts as cell-based. Details: expressed in transfected cells; host or cells: CHO-K1 (ATCC), stably transfected. The conditions noted are these: SEM; read-out: RXFP4 Emax (antagonist efficacy). The procedure: as §1
For assay [6], the target named is T2, RXFP3. Kind of assay: cAMP antagonist assay against 10 nM analogue 2 in CHO-K1-RXFP3 cells. It is filed as cell-based. As to conditions: SEM; read-out: RXFP3 Emax (antagonist efficacy). How it is done: as §1

T1 sequence (Q8TDU9 whole entry): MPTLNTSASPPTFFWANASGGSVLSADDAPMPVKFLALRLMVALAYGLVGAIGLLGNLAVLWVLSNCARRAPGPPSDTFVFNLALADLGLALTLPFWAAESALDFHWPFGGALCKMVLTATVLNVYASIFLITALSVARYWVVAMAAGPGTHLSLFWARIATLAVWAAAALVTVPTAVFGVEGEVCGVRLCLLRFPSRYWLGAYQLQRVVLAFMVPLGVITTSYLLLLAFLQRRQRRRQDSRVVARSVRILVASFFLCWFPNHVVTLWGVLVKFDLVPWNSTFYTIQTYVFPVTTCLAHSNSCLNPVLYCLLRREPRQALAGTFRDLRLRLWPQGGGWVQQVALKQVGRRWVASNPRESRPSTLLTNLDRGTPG

On to `CC[C@H](C)[C@@H]1NC(=O)[C@H](Cc2ccccc2)NC(=O)[C@H](CCC(=O)O)NC(=O)[C@H](CCCNC(=N)N)NC(=O)CNC(=O)[C@@H](NC(=O)[C@H](CC(C)C)NC(=O)[C@H](CCCNC(=N)N)NC(=O)[C@@H](NC(=O)CNC(=O)[C@H](Cc2ccc(O)cc2)NC(=O)[C@@H]2CCCN2C(=O)[C@H](C)NC(=O)[C@H](C)NC(=O)[C@@H](N)CCCNC(=N)N)C(C)C)CSSC[C@H](N)C(=O)N[C@@H](CCCCN)C(=O)N[C@@H](Cc2c[nH]c3ccccc23)C(=O)NCC(=O)N[C@@H](CO)C(=O)N[C@@H](C)C(=O)N[C@@H](CCCCN)C(=O)N[C@@H](CO)C(=O)N[C@@H](CCC(=O)O)C(=O)N[C@@H]([C@@H](C)CC)C(=O)N[C@@H](CO)C(=O)N[C@@H](CO)C(=O)N[C@@H](CC(C)C)C(=O)N[C@H](C(=O)O)CSSC[C@@H](C(=O)NCC(=O)NCC(=O)N[C@@H](CO)C(=O)N[C@@H](CCCNC(=N)N)C(=O)N[C@@H](Cc2c[nH]c3ccccc23)C(=O)O)NC(=O)[C@H]([C@@H](C)O)NC(=O)[C@H](Cc2ccccc2)NC(=O)[C@H]([C@@H](C)CC)NC(=O)[C@H](C(C)C)NC(=O)[C@H](C)NC(=O)[C@H](CCCNC(=N)N)NC1=O` [Analogue 2, reference compound], for which the EC50 at RXFP4 [1] is 0.0199 µM; on RXFP3 [4], 0.00372 µM. Besides, the Ki at RXFP3 [2] (read-out: RXFP3 Binding Ki) is 0.0191 µM; on RXFP4 [3] (read-out: RXFP4 Binding Ki) it was 0.0794 µM.

For the compound `CC[C@H](C)[C@@H]1NC(=O)[C@H](Cc2ccccc2)NC(=O)[C@H](CCC(=O)O)NC(=O)[C@H](CCCNC(=N)N)NC(=O)CNC(=O)[C@@H](NC(=O)[C@H](CC(C)C)NC(=O)[C@H](CCCNC(=N)N)NC(=O)[C@@H](NC(=O)CNC(=O)[C@H](Cc2ccc(O)cc2)NC(=O)[C@@H]2CCCN2C(=O)[C@H](C)NC(=O)[C@H](C)NC(=O)[C@@H](N)CCCNC(=N)N)C(C)C)CSSC[C@H](N)C(=O)N[C@@H]([C@@H](C)O)C(=O)N[C@@H](CC(=O)O)C(=O)NCC(=O)N[C@@H](C)C(=O)N[C@@H](CO)C(=O)N[C@@H](CCSC)C(=O)N[C@@H](CCCCN)C(=O)N[C@@H](CC(=O)O)C(=O)N[C@@H](CC(C)C)C(=O)N[C@@H](CO)C(=O)N[C@@H](C)C(=O)N[C@@H](CC(C)C)C(=O)N[C@H](C(=O)O)CSSC[C@@H](C(=O)N[C@@H](CCCNC(=N)N)C(=O)O)NC(=O)[C@H]([C@@H](C)CC)NC(=O)[C@H](Cc2ccccc2)NC(=O)[C@H]([C@@H](C)CC)NC(=O)[C@H](C(C)C)NC(=O)[C@H](C)NC(=O)[C@H](CCCNC(=N)N)NC1=O` [Analogue 16] (I: H-RAAPYGVRLCGREFIRAVIFICR-OH / II: H-CTDGASMKDLSALC-OH; disulfide I:10-II:1, I:22-II:14; N-terminus assumed), the “RXFP4 Activity pEC50” value on RXFP4 [1] is “Weak partial agonist (4)”. The results for the Emax at RXFP4 [5] and on RXFP3 [6] were 2.1 ± 4.7% and 55.8 ± 3.4%, respectively.

As for `CC[C@H](C)[C@@H]1NC(=O)[C@H](Cc2ccccc2)NC(=O)[C@H]([C@@H](C)CC)NC(=O)[C@H](C(C)C)NC(=O)[C@H]([C@@H](C)O)NC(=O)[C@H](CCCNC(=N)N)NC(=O)[C@H]([C@@H](C)CC)NC(=O)[C@H](Cc2ccccc2)NC(=O)[C@H](CCC(=O)O)NC(=O)[C@H](CC(C)C)NC(=O)CNC(=O)[C@@H](NC(=O)[C@H](CC(C)C)NC(=O)[C@H](CCCNC(=N)N)NC(=O)[C@@H](NC(=O)CNC(=O)[C@H](CCC(=O)O)NC(=O)[C@H](CCCCN)NC(=O)[C@H](C)NC(=O)[C@H](C)NC(=O)[C@@H](N)CCCNC(=N)N)C(C)C)CSSC[C@H](N)C(=O)N[C@@H]([C@@H](C)O)C(=O)N[C@@H](CC(=O)O)C(=O)NCC(=O)N[C@@H](C)C(=O)N[C@@H](CO)C(=O)N[C@@H](CCSC)C(=O)N[C@@H](CCCCN)C(=O)N[C@@H](CC(=O)O)C(=O)N[C@@H](CC(C)C)C(=O)N[C@@H](CO)C(=O)N[C@@H](C)C(=O)N[C@@H](CC(C)C)C(=O)N[C@H](C(=O)O)CSSC[C@@H](C(=O)N[C@@H](CCCNC(=N)N)C(=O)O)NC1=O` [Analogue 20] (I: H-RAAKEGVRLCGLEFIRTVIFICR-OH / II: H-CTDGASMKDLSALC-OH; disulfide I:10-II:1, I:22-II:14; N-terminus assumed), the “RXFP4 Activity pEC50” value at RXFP4 [1] is given as “Weak partial agonist (4)”. Besides, the results for the Emax on RXFP4 [5] and at RXFP3 [6] were 8.1 ± 9.5% and 19.9 ± 2.3%, respectively.

For `CC[C@H](C)[C@@H]1NC(=O)[C@H](Cc2ccccc2)NC(=O)[C@H](CCC(=O)O)NC(=O)[C@H](CCCNC(=N)N)NC(=O)CNC(=O)[C@@H](NC(=O)[C@H](CC(C)C)NC(=O)[C@H](CCCNC(=N)N)NC(=O)[C@@H](NC(=O)CNC(=O)[C@H](Cc2ccc(O)cc2)NC(=O)[C@@H]2CCCN2C(=O)[C@H](C)NC(=O)[C@H](C)NC(=O)[C@@H](N)CCCNC(=N)N)C(C)C)CSSC[C@@H]2NC(=O)[C@@H](NC(=O)[C@H](CO)NC(=O)[C@H](CO)NC(=O)[C@H](CO)NC(=O)[C@H](CC(C)C)NC(=O)CNC(=O)[C@H](C)NC(=O)[C@H](CC(C)C)NC(=O)[C@@H](NC(=O)[C@@H](N)CC(=O)O)C(C)C)CSSC[C@H](NC(=O)CNC(=O)[C@H](Cc3c[nH]c4ccccc34)NC(=O)[C@H](CCCCN)NC2=O)C(=O)N[C@@H](CO)C(=O)N[C@@H](CCCCN)C(=O)N[C@@H](CO)C(=O)N[C@@H](CCC(=O)O)C(=O)N[C@@H]([C@@H](C)CC)C(=O)N[C@@H](CO)C(=O)N[C@@H](CO)C(=O)N[C@@H](CC(C)C)C(=O)N[C@H](C(=O)O)CSSC[C@@H](C(=O)NCC(=O)NCC(=O)N[C@@H](CO)C(=O)N[C@@H](CCCNC(=N)N)C(=O)N[C@@H](Cc2c[nH]c3ccccc23)C(=O)O)NC(=O)[C@H]([C@@H](C)O)NC(=O)[C@H](Cc2ccccc2)NC(=O)[C@H]([C@@H](C)CC)NC(=O)[C@H](C(C)C)NC(=O)[C@H](C)NC(=O)[C@H](CCCNC(=N)N)NC1=O` [Relaxin 3 (R3), reference compound], the Ki on RXFP3 [2] (mean ± SEM, n in cell, SEM, read-out: RXFP3 Binding pKi (converted)) was 0.0229 µM; at RXFP4 [3] (mean ± SEM, n in cell, SEM, read-out: RXFP4 Binding pKi (converted)), 0.00229 µM. Besides, the EC50 on RXFP3 [4] is 0.000832 µM.
